Source: patent publication US20260265248A1, “NOVEL PD-L1 INHIBITORS” (AFFIRMA BIOTECH S. L., priority 2023, published 2026)

Each molecule was assayed against T1, PD-1/PD-L1 (Homo sapiens, UniProt Q9NZQ7) (assay: PD1-PDL1 HTRF assay). Settings: PD-1/PD-L1 homogenous time-resolved fluorescence (HTRF) binding assay; Tag1-PDL1 5 nM, Tag2-PD1 50 nM.
T1 construct: purchased CisBio
Excerpt: The CisBio HTRF assay kit, purchased from CisBio only, was employed to determine the IC50 values of compounds. The PD1-PDL1 HTRF assay measures the interactions between the two proteins, PD1 and PDL1. The interaction is detected by using anti-Tag1 labeled with Europium (HTRF donor) which binds to PDL1 and anti-Tag2 labeled with XL665 (HTRF acceptor) which binds to PD1. When the two antibodies are in proximity, the excitation of the donor fluorophore results in FRET emission from the acceptor fluorophore. The presence of inhibitors for such an interaction result in reduction of HTRF signal.
The assay was conducted in 96-well white assay plates. All the reagents, including Tag1-PDL1, Tag2-PD1, Anti-Tag1-PDL1, Anti-Tag2-PD1 were thawed and diluted with PPI Europium Detection buffer to achieve the desired concentration as per the manufacturer's protocol. A 1000 μM stock solution of test inhibitors was prepared in DMSO. The stock solution was diluted in DMSO to prepare 8 concentrations (1000-0.001 μM). These stock solutions were further diluted in PPI Europium detection buffer to prepare 8 working stock solutions (100-0.0001 μM). To the 96-well plate, 2 μL of the test inhibitor working stock solutions were added followed by 4 μL of Tag1-PDL1 (5 nM) and 4 μL of Tag2-PD1 (50 nM). The plate was incubated at room temperature for 15 min. Subsequently, 10 μL of pre-mixed Anti-Tag1-PDL1 and Anti-Tag2-PD1 solution was added. The plate was sealed and incubated at room temperature for 1 h. The HTRF signal was read on Perkin Elmer Envision plate reader using excitation wavelength of 320 nm, emission wavelengths of 620 nm and 665 nm. Results were obtained by calculating the ratio of signal from acceptor at 665 nm to that of signal from donor at 620 nm multiplied by […]. The IC50 values were determined by the Hill equation using GraphPad Prism software.

T1 sequence (Q9NZQ7 19-238 limits assumed): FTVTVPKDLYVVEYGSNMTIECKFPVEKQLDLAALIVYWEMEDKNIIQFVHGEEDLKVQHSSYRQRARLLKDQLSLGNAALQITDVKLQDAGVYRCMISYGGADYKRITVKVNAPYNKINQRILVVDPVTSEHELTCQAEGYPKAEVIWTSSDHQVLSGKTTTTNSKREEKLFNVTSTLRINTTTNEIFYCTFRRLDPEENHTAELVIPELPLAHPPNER

Q: For `Cc1c(-c2ccccc2)cccc1-c1ccn2c(-c3ccc(CN4CCCCC4C(=O)O)cc3)cnc2c1` (racemic) [Example 1, 1-(4-(7-(2-methyl-[1,1′-biphenyl]-3-yl)imidazo[1,2-a]pyridin-3-yl)benzyl) piperidine-2-carboxylic acid], which IC50 is on record?
A: 100 to 1000 nM

Q: For `Cc1c(-c2ccc3c(c2)OCCO3)cccc1-c1ccn2c(-c3ccc(CN4CCOCC4C(=O)O)cc3)cnc2c1` (racemic) [Example 33, 4-(4-(7-(3-(2,3-dihydrobenzo[b][1,4]dioxin-6-yl)-2-methylphenyl)imidazo[1,2-a]pyridin-3-yl)benzyl)morpholine-3-carboxylic acid], which IC50 is on record?
A: 100 to 1000 nM

Q: How did the IC50 turn out when `Cc1c(-c2ccc3c(c2)OCCO3)cccc1-c1ccn2c(-c3ccc(CN4CCOCC4C(=O)O)cc3)cnc2c1` (single isomer, unassigned) [Example 34, 4-(4-(7-(3-(2,3-dihydrobenzo[b][1,4]dioxin-6-yl)-2-methylphenyl)imidazo[1,2-a]pyridin-3-yl)benzyl)morpholine-3-carboxylic acid] was run?
A: 100 to 1000 nM

Q: With `Cc1c(-c2ccc3c(c2)OCCO3)cccc1-c1ccn2c(-c3ccc(CN4CCOCC4C(=O)O)cc3)cnc2c1` (single isomer, unassigned) [Example 35, 4-(4-(7-(3-(2,3-dihydrobenzo[b][1,4]dioxin-6-yl)-2-methylphenyl)imidazo[1,2-a]pyridin-3-yl)benzyl)morpholine-3-carboxylic acid] as the molecule, how does the IC50 read?
A: 100 to 1000 nM

Q: Which IC50 does the source give for `Cc1c(-c2ccccc2)cccc1-c1ccn2c(-c3ccc(CN4CCC[C@H]4C(=O)O)cc3)cnc2c1` [Example 2, (4-(7-(2-methyl-[1,1′-biphenyl]-3-yl)imidazo[1,2-a]pyridin-3-yl)benzyl)proline] here?
A: 10 to 100 nM

Q: For `Cc1c(-c2ccccc2)cccc1-c1ccn2c(-c3ccc(CNC4(C(=O)O)COC4)cc3)cnc2c1` [Example 3, 3-((4-(7-(2-methyl-[1,1′-biphenyl]-3-yl)imidazo[1,2-a]pyridin-3-yl)benzyl)amino)oxetane-3-carboxylic acid], which IC50 is on record?
A: 100 to 1000 nM

Q: Which IC50 does the source give for `Cc1c(-c2ccccc2)cccc1-c1ccn2c(-c3ccc(CN4C[C@H](O)C[C@H]4C(=O)O)cc3)cnc2c1` [Example 4, (2S,4R)-4-hydroxy-1-(4-(7-(2-methyl-[1,1′-biphenyl]-3-yl)imidazo[1,2-a]pyridin-3-yl)benzyl)pyrrolidine-2-carboxylic acid] here?
A: 100 to 1000 nM

Q: With `Cc1c(-c2ccccc2)cccc1-c1ccn2c(-c3ccc(CNC4(C(=O)O)CCC4)cc3)cnc2c1` [Example 5, 1-((4-(7-(2-methyl-[1,1′-biphenyl]-3-yl)imidazo[1,2-a]pyridin-3-yl)benzyl)amino)cyclobutane-1-carboxylic acid] as the molecule, how does the IC50 read?
A: 100 to 1000 nM

Q: Which IC50 does the source give for `Cc1c(-c2ccccc2)cccc1-c1ccn2c(-c3ccc(CN4CCOCC4C(=O)O)cc3)cnc2c1` (centres unmarked) [Example 6, 4-(4-(7-(2-methyl-[1,1′-biphenyl]-3-yl)imidazo[1,2-a]pyridin-3-yl)benzyl)morpholine-3-carboxylic acid] here?
A: 100 to 1000 nM

Q: `Cc1c(-c2ccccc2)cccc1-c1ccn2c(-c3ccc(CN4CC(C(=O)O)C4)cc3)cnc2c1` [Example 7, 1-(4-(7-(2-methyl-[1,1′-biphenyl]-3-yl)imidazo[1,2-a]pyridin-3-yl)benzyl)azetidine-3-carboxylic acid] was tested. Which IC50 did it give?
A: 100 to 1000 nM

Q: With `Cc1c(-c2ccccc2)cccc1-c1ccn2c(-c3ccc(CNCCCO)cc3)cnc2c1` [Example 8, 3-((4-(7-(2-methyl-[1,1′-biphenyl]-3-yl)imidazo[1,2-a]pyridin-3-yl)benzyl)amino)propan-1-ol] as the molecule, how does the IC50 read?
A: 100 to 1000 nM

Q: `Cc1c(-c2ccccc2)cccc1-c1ccn2c(-c3ccc(CN[C@H](C(=O)O)C(C)C)cc3)cnc2c1` [Example 9, (4-(7-(2-methyl-[1,1′-biphenyl]-3-yl)imidazo[1,2-a]pyridin-3-yl)benzyl)valine] was tested. Which IC50 did it give?
A: 100 to 1000 nM

Q: Which IC50 does the source give for `Cc1c(-c2ccccc2)cccc1-c1ccn2c(-c3ccc(CN4CCC[C@H]4C(=O)O)cc3)cnc2c1` [Example 10, (4-(7-(2-methyl-[1,1′-biphenyl]-3-yl)imidazo[1,2-a]pyridin-3-yl)benzyl)-L-proline] here?
A: 100 to 1000 nM

Q: Which IC50 does the source give for `Cc1c(-c2ccccc2)cccc1-c1ccn2c(-c3ccc(CN4CCC[C@@H]4C(=O)O)cc3)cnc2c1` [Example 11, (4-(7-(2-methyl-[1,1′-biphenyl]-3-yl)imidazo[1,2-a]pyridin-3-yl)benzyl)-D-proline] here?
A: 100 to 1000 nM

Q: With `Cc1c(-c2ccccc2)cccc1-c1ccn2c(-c3ccc(CNCC(=O)O)cc3)cnc2c1` [Example 12, (4-(7-(2-methyl-[1,1′-biphenyl]-3-yl)imidazo[1,2-a]pyridin-3-yl)benzyl)glycine] as the molecule, how does the IC50 read?
A: 100 to 1000 nM

Q: `Cc1c(-c2ccccc2)cccc1-c1ccn2c(-c3ccc(CN4CC[C@H]4C(=O)O)cc3)cnc2c1` [Example 13, (S)-1-(4-(7-(2-methyl-[1,1′-biphenyl]-3-yl)imidazo[1,2-a]pyridin-3-yl)benzyl)azetidine-2-carboxylic acid] was tested. Which IC50 did it give?
A: 100 to 1000 nM

Q: `Cc1c(-c2ccccc2)cccc1-c1ccn2c(-c3ccc(CNCC(O)CC(=O)O)cc3)cnc2c1` (centres unmarked) [Example 14, 3-hydroxy-4-((4-(7-(2-methyl-[1,1′-biphenyl]-3-yl)imidazo[1,2-a]pyridin-3-yl)benzyl)amino) butanoic acid] was tested. Which IC50 did it give?
A: 100 to 1000 nM

Q: For `Cc1c(-c2ccccc2)cccc1-c1ccn2c(-c3ccc(CNCCCO)cc3)nnc2c1` [Example 15, 3-((4-(7-(2-methyl-[1,1′-biphenyl]-3-yl)-[1,2,4]triazolo[4,3-a]pyridin-3-yl)benzyl)amino)propan-1-ol], which IC50 is on record?
A: 100 to 1000 nM

Q: How did the IC50 turn out when `Cc1c(-c2ccccc2)cccc1-c1ccn2c(-c3ccc(CNC(C)(C)CO)cc3)cnc2c1` [Example 17, 2-methyl-2-((4-(7-(2-methyl-[1,1′-biphenyl]-3-yl)imidazo[1,2-a]pyridin-3-yl)benzyl)amino)propan-1-ol] was run?
A: 100 to 1000 nM

Q: How did the IC50 turn out when `Cc1c(-c2ccccc2)cccc1-c1ccn2c(-c3ccc(CNCCC(=O)O)cc3)cnc2c1` [Example 18, 3-((4-(7-(2-methyl-[1,1′-biphenyl]-3-yl)imidazo[1,2-a]pyridin-3-yl)benzyl)amino)propanoic acid] was run?
A: 100 to 1000 nM

Q: Which IC50 does the source give for `Cc1c(-c2ccccc2)cccc1-c1ccn2c(-c3ccc(CNCCS(=O)(=O)O)cc3)cnc2c1` [Example 19, 2-((4-(7-(2-methyl-[1,1′-biphenyl]-3-yl)imidazo[1,2-a]pyridin-3-yl)benzyl)amino)ethane-1-sulfonic acid] here?
A: 100 to 1000 nM

Q: Which IC50 does the source give for `COc1cc(-c2cnc3cc(-c4cccc(-c5ccccc5)c4C)ccn23)cc(OC)c1CN1CCCC1C(=O)O` (centres unmarked) [Example 20, 1-(2,6-dimethoxy-4-(7-(2-methyl-[1,1′-biphenyl]-3-yl)imidazo[1,2-ai]pyridin-3-yl)benzyl)piperidine-2-carboxylic acid] here?
A: 100 to 1000 nM

Q: Which IC50 does the source give for `COc1cc(-c2cnc3cc(-c4cccc(-c5ccccc5)c4C)ccn23)cc(OC)c1CN1CCC[C@H]1C(=O)O` [Example 21, (2,6-dimethoxy-4-(7-(2-methyl-[1,1′-biphenyl]-3-yl)imidazo[1,2-a]pyridin-3-yl)benzyl)proline] here?
A: 100 to 1000 nM

Q: With `Cc1c(-c2ccccc2)cccc1-c1ccn2c(-c3ccc(CN4CCC[C@@H]4CO)cc3)cnc2c1` [Example 23, (R)-(1-(4-(7-(2-methyl-[1,1′-biphenyl]-3-yl)imidazo[1,2-a]pyridin-3-yl)benzyl)pyrrolidin-2-yl)methanol] as the molecule, how does the IC50 read?
A: 100 to 1000 nM

Q: Which IC50 does the source give for `Cc1c(-c2ccccc2)cccc1-c1ccn2c(-c3ccc(CN4CCC[C@H]4CO)cc3)cnc2c1` [Example 24, (S)-(1-(4-(7-(2-methyl-[1,1′-biphenyl]-3-yl)imidazo[1,2-a]pyridin-3-yl)benzyl)pyrrolidin-2-yl)methanol] here?
A: 100 to 1000 nM

Q: `Cc1c(-c2ccc3c(c2)OCCO3)cccc1-c1ccn2c(-c3ccc(CN4CC(C(=O)O)C4)cc3)cnc2c1` [Example 25, 1-(4-(7-(3-(2,3-dihydrobenzo[b][1,4]dioxin-6-yl)-2-methylphenyl)imidazo[1,2-a]pyridin-3-yl)benzyl)azetidine-3-carboxylic acid] was tested. Which IC50 did it give?
A: 100 to 1000 nM

Q: For `Cc1c(-c2ccc3c(c2)OCCO3)cccc1-c1ccn2c(-c3ccc(CN4CC[C@H]4C(=O)O)cc3)cnc2c1` [Example 26, (S)-1-(4-(7-(3-(2,3-dihydrobenzo[b][1,4]dioxin-6-yl)-2-methylphenyl)imidazo[1,2-a]pyridin-3-yl)benzyl)azetidine-2-carboxylic acid], which IC50 is on record?
A: 100 to 1000 nM

Q: With `Cc1c(-c2ccc3c(c2)OCCO3)cccc1-c1ccn2c(-c3ccc(CN4CCC[C@@H]4C(=O)O)cc3)cnc2c1` [Example 27, (4-(7-(3-(2,3-dihydrobenzo[b][1,4]dioxin-6-yl)-2-methylphenyl)imidazo[1,2-a]pyridin-3-yl)benzyl)-D-proline] as the molecule, how does the IC50 read?
A: 100 to 1000 nM

Q: Which IC50 does the source give for `Cc1c(-c2ccc3c(c2)OCCO3)cccc1-c1ccn2c(-c3ccc(CN4CCC[C@H]4C(=O)O)cc3)cnc2c1` [Example 28, (4-(7-(3-(2,3-dihydrobenzo[b][1,4]dioxin-6-yl)-2-methylphenyl)imidazo[1,2-a]pyridin-3-yl)benzyl)-L-proline] here?
A: 100 to 1000 nM
